{"source": "patent US20120289541A1", "about": "(NOVARTIS AG, priority 2010, published 2012)", "key": {"in vitro [1]": {"assay": "in vitro", "format": "in vitro ADME", "conditions": "bovine, pH 7.4", "source_text": "The volume of serous middle ear fluid (MEF) that accumulates in non-infected chinchillas with Eustachian tube obstruction varies greatly. […] It became necessary to formulate an artificial middle ear fluid (AMEF) that mimics the MEF."}, "[2]": {"conditions": "cited from earlier work"}, "[3]": {"assay": "Non-specific binding to ultrafiltration device in PBS"}, "in vitro [4]": {"assay": "in vitro"}, "[5]": {"assay": "External ear dosing of 3% moxigel after 10% or 50% IPM pretreatment, MEF microdialysis", "conditions": "3% moxigel 9 mg external ear, mean"}}, "note": "Read-outs that look alike come from different tables or passages of the source."}
{"smiles": "COc1c(N2C[C@@H]3CCCN[C@@H]3C2)c(F)cc2c(=O)c(C(=O)O)cn(C3CC3)c12", "note": "[moxifloxacin]", "values": [{"measurement": "fraction unbound at 220 μg/ml", "setting": "in vitro [1]; isolated protein", "result": "0.84 ± 0.063"}, {"measurement": "fraction unbound at 492 μg/ml", "setting": "in vitro [1]; isolated protein", "result": "0.92 ± 0.013"}, {"measurement": "fraction unbound", "setting": "in vitro [1]", "result": "0.84 to 0.92"}, {"measurement": "mean AUC", "setting": "[2]; human, in vivo, po, 400 mg", "result": 2170, "unit": "µg·min/mL"}, {"measurement": "concentration observed in plasma", "setting": "[2]; humans, oral dose of 400 mg, Owens & Ambrose 2002", "result": 2000, "unit": "ng/mL"}, {"measurement": "total (bound plus free) maximum concentration in plasma", "setting": "[2]; humans, oral dose of 400 mg", "result": 3.1, "unit": "µg/mL"}, {"measurement": "elimination rate constant", "setting": "high intrabulla dose (150 μg)", "result": "0.0075 ± 0.0010", "unit": "min⁻¹"}, {"measurement": "elimination rate constant", "setting": "intrabulla dosing, mean of both doses", "result": 0.0093, "unit": "min⁻¹"}, {"measurement": "elimination rate constant", "setting": "low intrabulla dose (50 μg)", "result": "0.0102 ± 0.0040", "unit": "min⁻¹"}, {"measurement": "fraction unbound", "setting": "[3]", "result": "~1"}, {"measurement": "fraction unbound at 220 μg/ml", "setting": "[3]", "result": "0.97 ± 0.026"}, {"measurement": "fraction unbound at 492 μg/ml", "setting": "in vitro [4]", "result": "0.75 ± 0.02"}, {"measurement": "Time to reach 10 μg/mL", "setting": "[5]", "result": 618, "unit": "min"}]}
